# Measurements taken from article PMC10636135, “Computational design of highly efficient thermostable MHET hydrolases and dual enzyme system for PET recycling” (Communications Biology, 2023).
# Tests used:
# [1] = biological target: T1, 1EVQ (thermostable scaffold) (Alicyclobacillus acidocaldarius, UniProt Q7SIG1); assay: relative MHET hydrolysis activity; assay type: biochemical; details: 4.8 mM MHET, 0.25 μM enzyme, 50 mM sodium phosphate, pH 7.5, 50 °C, 10 min
# T1 construct: synthesized codon-optimized gene, pET-22b(+), E. coli BL21(DE3); named only by PDB code
# [2] = tested on: T2, KL36F (fusion of KL-MHETase and FAST-PETase); assay: initial rates, TPA by HPLC, Michaelis-Menten fit; assay type: biochemical, Geobacillus stearothermophilus; details: 50 mM sodium phosphate, pH 7.5, 50 °C
# T2 construct: gene est; order judged from name; FAST-PETase moiety also hydrolyses MHET weakly; with Poly(ethylene terephthalate) hydrolase
smiles,measurement,setting,value
O=C(O)c1ccc(C(=O)OCCO)cc1 [MHET],relative activity,[1],"1EVQ and 1TQH, exhibited apparent activity with regard to MHET hydrolysis"
same,Km,[2],4.52 ± 0.67 mM
